Data set [1] deals with EntF (EntF-H6) (Escherichia coli, UniProt P11454). In words: substrate activation assay. Type of data set: biochemical. The note with it: without YbdZ; two values for two different preparations.
Data set [2] addresses EntF+YbdZ (Escherichia coli, UniProt P11454). In words: substrate activation assay. It is filed as biochemical. The note with it: co-purified with YbdZ; two values for two different preparations.
Data set [3] concerns the target H6-CmnO. Description: co-purification after co-expression.
Substrate in data set [4]: O=C(O)c1cccc(O)c1O
In words: substrate activation assay. Type of data set: biochemical, Escherichia coli. The note with it: without YbdZ.

The Km is the concentration of substrate that gives half-maximal velocity.

Sequence of EntF+YbdZ (P11454 whole entry): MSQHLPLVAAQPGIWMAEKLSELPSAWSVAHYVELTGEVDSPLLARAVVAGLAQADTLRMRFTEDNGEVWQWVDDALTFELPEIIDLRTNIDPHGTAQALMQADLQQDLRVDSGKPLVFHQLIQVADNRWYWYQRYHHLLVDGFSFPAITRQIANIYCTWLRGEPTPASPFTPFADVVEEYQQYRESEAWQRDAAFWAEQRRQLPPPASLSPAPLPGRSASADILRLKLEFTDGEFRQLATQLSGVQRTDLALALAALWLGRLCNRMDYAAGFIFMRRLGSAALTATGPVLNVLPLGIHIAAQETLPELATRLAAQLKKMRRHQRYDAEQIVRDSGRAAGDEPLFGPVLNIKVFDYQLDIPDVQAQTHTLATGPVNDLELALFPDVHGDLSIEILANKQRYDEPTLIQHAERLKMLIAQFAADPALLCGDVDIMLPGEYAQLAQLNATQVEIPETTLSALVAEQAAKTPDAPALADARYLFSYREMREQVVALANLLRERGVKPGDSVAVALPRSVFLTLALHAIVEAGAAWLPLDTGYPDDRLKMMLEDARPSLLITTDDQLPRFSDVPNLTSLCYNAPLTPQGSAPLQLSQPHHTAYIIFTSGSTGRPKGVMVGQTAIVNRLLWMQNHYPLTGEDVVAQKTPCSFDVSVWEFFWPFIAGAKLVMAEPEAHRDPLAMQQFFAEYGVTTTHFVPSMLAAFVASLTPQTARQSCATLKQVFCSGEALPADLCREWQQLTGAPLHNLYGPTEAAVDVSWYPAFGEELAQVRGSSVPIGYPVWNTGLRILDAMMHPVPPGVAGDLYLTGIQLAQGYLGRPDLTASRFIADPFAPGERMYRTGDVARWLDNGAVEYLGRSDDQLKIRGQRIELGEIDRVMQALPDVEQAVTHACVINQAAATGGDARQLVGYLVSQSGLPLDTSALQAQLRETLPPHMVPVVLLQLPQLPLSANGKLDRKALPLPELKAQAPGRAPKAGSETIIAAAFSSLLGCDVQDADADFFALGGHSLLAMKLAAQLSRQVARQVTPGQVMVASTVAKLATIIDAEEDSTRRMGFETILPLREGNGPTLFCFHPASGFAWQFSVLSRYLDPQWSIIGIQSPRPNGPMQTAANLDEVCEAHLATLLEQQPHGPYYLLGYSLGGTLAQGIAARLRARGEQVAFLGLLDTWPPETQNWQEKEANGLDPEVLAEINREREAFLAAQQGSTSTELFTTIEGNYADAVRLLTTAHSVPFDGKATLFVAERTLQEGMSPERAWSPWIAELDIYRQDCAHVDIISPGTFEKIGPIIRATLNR
Sequence of EntF+YbdZ (P18393 2-72 partner limits assumed): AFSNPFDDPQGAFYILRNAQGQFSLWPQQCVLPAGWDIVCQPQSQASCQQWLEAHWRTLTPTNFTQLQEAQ
Sequence of EntF (EntF-H6) (P11454 whole entry): as the sequence (P11454 whole entry) above

For the molecule `N[C@@H](CO)C(=O)O` [L-Ser], the “Km ^a” value in data set [1] is 7162.1 ± 413.5, 4589.5 ± 313.0 μM; in data set [2], 655.9 ± 53.0, 240.1 ± 46.7 μM. CmnN (natural protein): in data set [3], the stoichiometry N (mol CmnN per mol H6-CmnO) was 0.42.

B1: EntE (H6-EntE) (Escherichia coli K-12) (protein)
chain: MSIPFTRWPEEFARRYREKGYWQDLPLTDILTRHAASDSIAVIDGERQLSYRELNQAADNLACSLRRQGIKPGETALVQLGNVAELYITFFALLKLGVAPVLALFSHQRSELNAYASQIEPALLIADRQHALFSGDDFLNTFVTEHSSIRVVQLLNDSGEHNLQDAINHPAEDFTATPSPADEVAYFQLSGGTTGTPKLIPRTHNDYYYSVRRSVEICQFTQQTRYLCAIPAAHNYAMSSPGSLGVFLAGGTVVLAADPSATLCFPLIEKHQVNVTALVPPAVSLWLQALIEGESRAQLASLKLLQVGGARLSATLAARIPAEIGCQLQQVFGMAEGLVNYTRLDDSAEKIIHTQGYPMCPDDEVWVADAEGNPLPQGEVGRLMTRGPYTFRGYYKSPQHNASAFDANGFYCSGDLISIDPEGYITVQGREKDQINRGGEKIAAEEIENLLLRHPAVIYAALVSMEDELMGEKSCAYLVVKEPLRAVQVRRFLREQGIAEFKLPDRVECVDSLPLTAVGKVDKKQLRQWLASRASA
In the case of B1, the Km in data set [4] amounted to 2.9 ± 0.4 µM.
